Measured values: PMC8595825 (Journal of medicinal chemistry, 2021)

Key:
[1] = biological target: NDH2 in IMVs of M. smegmatis mc^2155 (Mycolicibacterium smegmatis, UniProt A0QYD6); assay: NADH oxidation in inverted membrane vesicles; format: biochemical; settings: KCN, 20 mM
[2] = tested on: M. smegmatis mc^2155 IMVs; assay: Oxygen consumption and hydrogen peroxide production by IMVs; format: biochemical
[3] = tested on: M. bovis BCG cell membrane; format: cell-based, Mycobacterium bovis BCG; settings: 4× MIC90 (1.2 μM); for membrane depolarizing effect: after 8 h of exposure; for time at which red/green fluorescence ratio significantly decreased: coincided with onset of cell death
mini-Ames test = format: cell-based
M. smegmatis IMVs = assay: Transmembrane pH gradient dissipation in IMVs; format: biochemical; settings: 1 and 2 μM
M. bovis BCG [4] = format: cell-based, Mycobacterium bovis BCG; settings: N-acetylcysteine, TEMPO, thiourea
piniBAC promoter = format: cell-based, Mycobacterium bovis BCG; settings: 0.4–25 μM, 24 h
[5] = tested on: Vero (African Green Monkey kidney epithelial cells); assay: Cytotoxicity against mammalian Vero cells; format: cell-based; settings: IC50 Vero/MIC50 Mtb
[6] = tested on: M. bovis BCG cell membrane; settings: for membrane permeabilizing effect: 4× MIC90, after 8 h of exposure; for time at which permeabilization was observed: 4× MIC90, attributed to onset of cell death
M. bovis BCG [7] = format: cell-based, Mycobacterium bovis BCG
[8] = In vivo pharmacokinetics in mice; settings: mouse; for bioavailability: po, 50 mg/kg
[9] = Metabolic stability in rat microsomes; format: in vitro ADME
M. bovis BCG [10] = format: cell-based, Mycobacterium bovis BCG; settings: 32 at its MIC90 + vitamin C 2.5 mM, 5 days
[11] = tested on: nutrient-starved M. tuberculosis H37Rv; assay: Loebel model, nutrient-starved nonreplicating cultures; format: cell-based, Mycobacterium tuberculosis H37Rv; settings: 40× MIC90 (64 μM); 7 days
[12] = tested on: reactive oxygen species (ROS) in M. bovis BCG; format: cell-based, Mycobacterium bovis BCG; settings: for dose-dependent ROS production: 0.25×–2× MIC90, 90 min; for ROS levels at higher dose: 2× MIC90
pfurA promoter = format: cell-based, Mycobacterium bovis BCG; settings: 0.5× to 2× MIC90, 24 h
M. bovis BCG [13] = format: cell-based, Mycobacterium bovis BCG; remark: listed apart in the source
[14] = tested on: M. bovis BCG katG mutant strain; format: cell-based, Mycobacterium bovis BCG

NDH2 in IMVs of M. smegmatis mc^2155, sequence (A0QYD6 1-457): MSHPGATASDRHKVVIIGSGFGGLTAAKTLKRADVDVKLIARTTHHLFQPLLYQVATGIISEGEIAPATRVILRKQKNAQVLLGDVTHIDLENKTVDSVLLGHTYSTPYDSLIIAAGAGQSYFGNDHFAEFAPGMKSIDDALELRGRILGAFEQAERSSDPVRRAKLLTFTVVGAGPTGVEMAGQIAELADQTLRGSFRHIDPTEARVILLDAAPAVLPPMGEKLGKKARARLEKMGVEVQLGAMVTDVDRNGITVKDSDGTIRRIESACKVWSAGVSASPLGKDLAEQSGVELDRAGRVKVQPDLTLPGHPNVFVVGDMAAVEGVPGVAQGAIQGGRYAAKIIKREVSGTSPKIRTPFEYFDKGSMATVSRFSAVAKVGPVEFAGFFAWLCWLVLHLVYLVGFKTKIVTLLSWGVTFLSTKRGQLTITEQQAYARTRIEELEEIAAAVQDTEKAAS

CCCCCCCCn1c2c([n+](CCCC)c1C)C(=O)c1ccccc1C2=O.[Br-] [compound 32]
stimulation of NADH oxidation with cyanide [1]: retained the ability to stimulate NADH oxidation | oxygen consumption in IMVs energized by NADH compared to malate [2]: ~ 1.8 fold | membrane depolarizing effect [3]: Neither compound induced depolarizing or permeabilizing effects | time at which red/green fluorescence ratio significantly decreased [3]: 48 h | mutagenicity, mini-Ames test (mini-Ames test): not mutagenic | protonophore activity (pH gradient dissipation) (M. smegmatis IMVs): only moderate rates of pH gradient dissipation | effect of antioxidants on growth inhibitory MIC BCG (M. bovis BCG [4]): did not diminish the growth inhibitory potency | piniBAC promoter activity (fluorescence) (piniBAC promoter): no increase in fluorescence | SI (selectivity index) [5]: > 25 | membrane permeabilizing effect [6]: Neither compound induced depolarizing or permeabilizing effects | time at which permeabilization was observed [6]: 24 h | time-kill outcome (M. bovis BCG [7]; 8× MIC90, 28 days): CFUs were not detected from day 21 onward | Vd [8]: 27 to 35 L/kg | clearance [8]: 38 to 55 mL/min/kg | half-life [8]: 7 to 10 h | bioavailability [8]: 1 to 2% | half-life [9]: 0.333 to 0.383 h | Log10 CFU counts with vitamin C added (M. bovis BCG [10]): nearly halved | bactericidal effect, Loebel model [11]: substantially reduced CFUs to levels equivalent to or below the detection limit | dose-dependent ROS production [12]: duly observed | pfurA activation (fluorescence) (pfurA promoter): induced dose-dependent increases in fluorescence | pMIC90 (M. bovis BCG [13]): > 0.5

CCCCCC[n+]1c2c(n(CC(C)C)c1C)C(=O)c1ccccc1C2=O.[Br-] [compound 34]
pMIC90 (M. bovis BCG [13]): > 0.5

CCCCCCCC[n+]1c2c(n(CC(C)C)c1C)C(=O)c1ccccc1C2=O.[Br-] [compound 35]
pMIC90 (M. bovis BCG [13]): > 0.5

CCCCCCCn1c2c([n+](CCCCC)c1C)C(=O)c1ccccc1C2=O.[Br-] [compound 48]
membrane depolarizing effect [3]: Neither compound induced depolarizing or permeabilizing effects | time at which red/green fluorescence ratio significantly decreased [3]: 24 h | piniBAC promoter activity (fluorescence) (piniBAC promoter): no increase in fluorescence | SI (selectivity index) [5]: > 25 | membrane permeabilizing effect [6]: Neither compound induced depolarizing or permeabilizing effects | time at which permeabilization was observed [6]: 48 h | bactericidal effect, Loebel model [11]: substantially reduced CFUs to levels equivalent to or below the detection limit | dose-dependent ROS production [12]: duly observed | pfurA activation (fluorescence) (pfurA promoter): induced dose-dependent increases in fluorescence | pMIC90 (M. bovis BCG [13]): > 0.5

CCCCCCn1c2c([n+](CCCCCC)c1C)C(=O)c1ccccc1C2=O.[Br-] [compound 50]
pMIC90 (M. bovis BCG [13]): > 0.5

CCCCn1c2c([n+](C3CCC4(CCCCC4)CC3)c1C)C(=O)c1ccccc1C2=O.[Br-] [compound 61]
mutagenicity, mini-Ames test (mini-Ames test): not mutagenic | piniBAC promoter activity (fluorescence) (piniBAC promoter): no increase in fluorescence | activity against katG mutant strain [14]: a shift to lower MICs was not evident | Vd [8]: 27 to 35 L/kg | clearance [8]: 38 to 55 mL/min/kg | half-life [8]: 7 to 10 h | bioavailability [8]: 1 to 2% | half-life [9]: 0.333 to 0.383 h | dose-dependent ROS production [12]: duly observed | pfurA activation (fluorescence) (pfurA promoter): induced dose-dependent increases in fluorescence

CCCCCCn1c(C)nc2c1C(=O)c1ccccc1C2=O [compound 72]
ROS levels at higher dose [12]: increased ROS levels but not to the levels induced by the actives at comparable doses | pfurA activation (fluorescence) (pfurA promoter): less evident

CCCCCCCCn1c(C)nc2c1C(=O)c1ccccc1C2=O [compound 73]
ROS levels at higher dose [12]: increased ROS levels but not to the levels induced by the actives at comparable doses | pfurA activation (fluorescence) (pfurA promoter): less evident

NNC(=O)c1ccncc1 [isoniazid, reference compound]
piniBAC promoter activity (fluorescence) (piniBAC promoter): duly increased piniBAC promoter activity | activity against katG mutant strain [14]: inactive against the mutant strain | time-kill outcome, colony growth by Day 28 (M. bovis BCG [7]; 4× MIC90 (12.8 μM)): comparable to the drug-free cultures
